From the NIST ThermoML archive (doi:10.1016/j.jct.2005.11.005)
± gives the expanded uncertainty stated by the source.

Columns and labels:
[1] = Molar enthalpy of transition or fusion; settings: Crystal; DSC
[2] = DTA; for Normal melting temperature: Crystal

Molar enthalpy of transition or fusion [1] [kcal/mol]	Normal melting temperature [2] [°C]	Glass transition temperature ([2]; Glass) [°C]	Structure (SMILES)
26.2 ± 0.669	99.10 ± 0.5	–	O.O.OC[C@H]1O[C@H](O[C@H]2O[C@H](CO)[C@@H](O)[C@H](O)[C@H]2O)[C@H](O)[C@@H](O)[C@@H]1O [D-(+)-trehalose dihydrate]
12.8 ± 0.669	209.4 ± 0.5	120.0 ± 2	OC[C@H]1O[C@H](O[C@H]2O[C@H](CO)[C@@H](O)[C@H](O)[C@H]2O)[C@H](O)[C@@H](O)[C@@H]1O [α-trehalose]
